# How the values were obtained:
# [1] = test system: CYPRO; test: In-water applied herbicidal mixtures, greenhouse, transplanted paddy rice weeds; type: in vivo, Cyperus rotundus L.
# Procedure: (§1) Weed seeds or nutlets of the desired test plant species were planted in puddled soil (mud) prepared by mixing a shredded, non-sterilized mineral soil (50.5 percent silt, 25.5 percent clay, and 24 percent sand, with a pH of about 7.6 and an organic matter content of about 2.9 percent) and water at a 1:1 volumetric ratio. The prepared mud was dispensed in 365 mL aliquots into 16-ounce (oz.) non-perforated plastic pots with a surface area of 86.59 square centimeters (cm^2) leaving a headspace of 3 centimeters (cm) in each pot Mud was allowed to dry overnight prior to planting or transplanting. Rice seeds were planted in Sun Gro MetroMix® 306 planting mixture, which typically has a pH of 6.0 to 6.8 and an organic matter content of about 30 percent, in plastic plug trays. Seedlings at the second or third leaf stage of growth were transplanted into 840 mL of mud contained in 32-oz. non-perforated plastic pots with a surface area of 86.59 cm^2 4 days prior to herbicide application. The paddy was created by filling the headspace of the pots with 2.5 to 3 cm of water. When required to ensure good germination and healthy plants, a fungicide treatment and/or other chemical or physical treatment was applied. The plants were grown for 4-22 days in a greenhouse with an approximate 14 hr photoperiod which was maintained at about 29′C during the day and 26° C. during the night. Nutrients were added as Osmocote® (19:6:12, N:P:K^+ minor nutrients) at 2 g per 16-oz. pot and 4 g per 32-oz. pot. Water was added on a regular basis to maintain the paddy flood, and supplemental lighting was provided with overhead metal halide 1000-Watt lamps as necessary. The plants were employed for testing when they reached the first through fourth true leaf stage.
# (§2) Treatments consisted of the acid or esters of 4-amino-3-chloro-5-fluoro-6-(4-chloro-2-fluoro-3-methoxy-phenyl)pyridine-2-carboxylic acid (compound A) each formulated as an SC (suspension concentrate) and various herbicidal components alone and in combination. Forms of compound A were applied on an acid equivalent basis.
# (§3) Other herbicidal components were applied on an active ingredient basis and included acetolactate synthase (ALS)-inhibiting herbicides formulated as Permit® 75 WDG, pyrazosulfuron-ethyl formulated as Agreen® WG or Sirius® G, and VLCFA inhibiting herbicide esprocarb (technical grade material).
# (§4) Treatment requirements for each compound or herbicidal component were calculated based upon the rates being tested, the concentration of active ingredient or acid equivalent in the formulation, an application volume of 2 mL per component per pot, and an application area of 86.59 cm^2 per pot.
# (§5) For formulated compounds, a measured amount was placed in an individual 100 or 200 mL glass vial and was dissolved in a volume of 1.25% (v/v) Agri-Dex® crop oil concentrate to obtain application solutions.
# (§6) For technical grade compounds, a weighed amount was placed in an individual 100 to 200 mL glass vial and was dissolved in a volume of acetone to obtain concentrated stock solutions. […] The concentrated stock solutions obtained were diluted with an equivalent volume of an aqueous mixture containing 2.5% (v/v) crop oil concentrate so that the final application solutions contained 1.25% (v/v) crop oil concentrate.
# Applications were made by injecting with a pipetter appropriate amounts of the application solutions, individually and sequentially, into the aqueous layer of the paddy. Control plants were treated in the same manner with the solvent blank. Applications were made so that all treated plant material received the same concentrations of acetone and crop oil concentrate.
# The treated plants and control plants were placed in a greenhouse as described above and water was added as needed to maintain a paddy flood. […]
# [2] = test system: FIMMI; test: as above; type: in vivo, Fimbristylis miliacea (L.) Vahl
# Procedure: as §1, §2, §3, §4, §5, §6
# Applications were made by injecting with a pipetter appropriate amounts of the application solutions, individually and sequentially, into the aqueous layer of the paddy. […]
# [3] = test system: SCPJU; test: Post-emergence foliar-applied herbicidal mixtures, greenhouse, direct seeded rice weeds; type: in vivo, Schoenoplectus juncoides (Roxb.) Palla
# Source text: (§7) Seeds or nutlets of the desired test plant species were planted in a soil matrix prepared by mixing a loam or sandy loam soil (e.g., 28.6 percent silt, 18.8 percent clay, and 52.6 percent sand, with a pH of about 5.8 and an organic matter content of about 1.8 percent) and calcareous grit in an 80 to 20 ratio. The soil matrix was contained in plastic pots with a volume of 1 quart and a surface area of 83.6 square centimeters (cm^2). When required to ensure good germination and healthy plants, a fungicide treatment and/or other chemical or physical treatment was applied. The plants were grown for 8-22 days in a greenhouse with an approximate 14 hr photoperiod which was maintained at about 29° C. during the day and 26° C. during the night. Nutrients (Peters Excel® 15-5-15 5-Ca 2-Mg and iron chelate) were applied in the irrigation solution as needed and water was added on a regular basis. Supplemental lighting was provided with overhead metal halide 1000-Watt lamps as necessary. The plants were employed for testing when they reached the first through fourth true leaf stage. […]
# (§8) Treatment requirements were calculated based upon the rates being tested, the concentration of active ingredient or acid equivalent in the formulation, and a 12 mL application volume at a rate of 187 L/ha.
# (§9) For treatments comprised of formulated compounds, measured amounts of compounds were placed individually in 25 mL glass vials and diluted in a volume of 1.25% (v/v) Agri-Dex® crop oil concentrated to obtain 12× stock solutions. […]
# (§10) For treatments comprised of formulated and technical compounds, weighed amounts of the technical materials were placed individually in 25 mL glass vials and dissolved in a volume of 97:3 v/v acetone/DMSO to obtain 12× stock solutions, and measured amounts of the formulated compounds were placed individually in 25 mL glass vials and diluted in a volume of 1.5% (v/v) crop oil concentrate or water to obtain 12× stock solutions. […]
# [4] = test system: ECHCO; test: as above; type: in vivo, Echinochloa colona (L.) Link; conditions: 105 g ai/ha
# Source text: as §7, §8, §9, §10
# [5] = test system: CYPIR; test: as above; type: in vivo, Cyperus iria L.
# Source text: (§11) Seeds or nutlets of the desired test plant species were planted in a soil matrix prepared by mixing a loam or sandy loam soil (e.g., 28.6 percent silt, 18.8 percent clay, and 52.6 percent sand, with a pH of about 5.8 and an organic matter content of about 1.8 percent) and calcareous grit in an 80 to 20 ratio. The soil matrix was contained in plastic pots with a volume of 1 quart and a surface area of 83.6 square centimeters (cm^2). When required to ensure good germination and healthy plants, a fungicide treatment and/or other chemical or physical treatment was applied. The plants were grown for 8-22 days in a greenhouse with an approximate 14 hr photoperiod which was maintained at about 29° C. during the day and 26° C. during the night. Nutrients (Peters Excel® 15-5-15 5-Ca 2-Mg and iron chelate) were applied in the irrigation solution as needed and water was added on a regular basis. Supplemental lighting was provided with overhead metal halide 1000-Watt lamps as necessary. The plants were employed for testing when they reached the first through fourth true leaf stage.
# as §2, with “(Compound A),” for “(compound A)”, “concentrate),” for “concentrate)”
# (§12) Other herbicidal components were applied on an active ingredient basis and included the acetolactate synthase (ALS)-inhibiting herbicides halosulfuron-methyl formulated as Permit® 75 WDG, pyrazosulfuron-ethyl formulated as Agreen® WG or Sirius® G, and the VLCFA inhibiting herbicide esprocarb (technical grade material).
# as §8, §9, §10
# [6] = test system: SCPJU; test: In-water applied herbicidal mixtures, greenhouse, transplanted paddy rice weeds; type: in vivo, Schoenoplectus juncoides (Roxb.) Palla
# Procedure: as §1
# as §2, with “basis. […]” for “basis.”
# as §4
# For formulated compounds, a measured amount was placed in an individual 100 or 200 mL glass vial and was dissolved in a volume of 1.25% (v/v) Agri-Dex® crop oil concentrate to obtain application solutions. […]
# [7] = test system: BRAPP; test: Post-emergence foliar-applied herbicidal mixtures, greenhouse, direct seeded rice weeds; type: in vivo
# Source text: as §11
# as §2, with “(Compound A),” for “(compound A)”, “concentrate),” for “concentrate)”
# as §12, §8
# For treatments comprised of formulated compounds, measured amounts of compounds were placed individually in 25 mL glass vials and diluted in a volume of 1.25% (v/v) Agri-Dex® crop oil concentrated to obtain 12× stock solutions. […] Application solutions were prepared by adding an appropriate amount of each stock solution (e.g., 1 mL) and diluted to the appropriate final concentrations with the addition of 10 mL of an aqueous mixture of 1.25% (v/v) crop oil concentrate so that the final spray solutions contained 1.25+/−0.05% (v/v) crop oil concentrate.
# For treatments comprised of technical compounds, weighed amounts can be placed individually in 25 mL glass vials and dissolved in a volume of 97:3 v/v acetone/DMSO to obtain 12× stock solutions. […] Application solutions can be prepared by adding an appropriate amount of each stock solution (e.g., 1 mL) and diluted to the appropriate final concentrations with the addition of 10 mL of an aqueous mixture of 1.5% (v/v) crop oil concentrate so that the final spray solutions contain 1.25% (v/v) crop oil concentrate. When technical materials are used, the concentrated stock solutions can be added to the spray solutions so that the final acetone and DMSO concentrations of the application solutions are 16.2% and 0.5%, respectively.
# For treatments comprised of formulated and technical compounds, weighed amounts of the technical materials were placed individually in 25 mL glass vials and dissolved in a volume of 97:3 v/v acetone/DMSO to obtain 12× stock solutions, and measured amounts of the formulated compounds were placed individually in 25 mL glass vials and diluted in a volume of 1.5% (v/v) crop oil concentrate or water to obtain 12× stock solutions. […] Application solutions were prepared by adding an appropriate amount of each stock solution (e.g., 1 mL) and diluted to the appropriate final concentrations with the addition of an appropriate amount of an aqueous mixture of 1.5% (v/v) crop oil concentrate so that the final spray solutions contained 1.25% (v/v) crop oil concentrate. […]
compound,measurement,setting,value
"CCN(C(=O)SCc1ccccc1)C(C)C(C)C (stereo not drawn) [Esprocarb, S-(phenylmethyl) N-(1,2-dimethylpropyl)-N-ethylcarbamothioate]",Visual Weed Control (%) - 21 DAA CYPRO Obs,[1]; 105 g ai/ha,0%
same,Visual Weed Control (%) - 21 DAA CYPRO Obs,[1]; 210 g ai/ha,50%
same,Visual Weed Control (%) - 21 DAA FIMMI Obs,[2]; 105 g ai/ha,0%
same,Visual Weed Control (%) - 21 DAA FIMMI Obs,[2]; 210 g ai/ha,0%
same,Visual Weed Control (%) - 22 DAA SCPJU Obs,[3]; 52.5 g ai/ha,0%
same,Visual Weed Control (%) - 22 DAA SCPJU Obs,[3]; 105 g ai/ha,0%
same,Visual Weed Control (%) - 22 DAA ECHCO Obs,[4],0%
same,Visual Weed Control (%) - 22 DAA CYPIR Obs,[5]; 52.5 g ai/ha,0%
same,Visual Weed Control (%) - 22 DAA CYPIR Obs,[5]; 105 g ai/ha,0%
same,Visual Weed Control (%) - 21 DAA SCPJU Obs,[6]; 105 g ai/ha,0%
same,Visual Weed Control (%) - 21 DAA SCPJU Obs,[6]; 210 g ai/ha,0%
same,Visual Weed Control (%) - 22 DAA BRAPP Obs,[7]; 52.5 g ai/ha,0%
same,Visual Weed Control (%) - 22 DAA BRAPP Obs,[7]; 105 g ai/ha,0%

# Source: patent US8809232B2, “Herbicidal compositions comprising 4-amino-3-chloro-5-fluoro-6-(4-chloro-2-fluoro-3-methoxyphenyl) pyridine-2-carboxylic acid or a derivative thereof and halosulfuron, pyrazosulfuron and esprocarb” (Dow Agrosciences LLC, priority 2012, dated 2014)
